Read-outs that look alike come from different tables or passages of the source.
Columns and labels:
Assay type in all cases: cell-based
SW1990 cells = assay: Cell count / cell proliferation assay in SW1990 cells; conditions: for effect on SW1990 cell numbers / proliferation: in words; for IC50: cells counted after 48 hours incubation, normalized to controls, read-out: Estimated IC50 values, SW1990
Experimental: FIG. 3 depicts the result of cell count assays after two days of incubation with an exemplary compound, Ac4Glc2Bz. The cells treated with the compound are, respectively, SW1990 and PANC-1, which are pancreatic cancer cell lines. Meanwhile, control samples were treated with solvent vehicle of 2.5 μL DMSO per 1 mL of medium.
(§1) FIGS. 5A and 5B show the results of cell toxicity experiments that were conducted on SW1990 and PANC-1 cells with the analogs indicated. Cells were counted after incubation with each analog for 48 hours. Cell counts were then normalized to controls, data was log transformed, and IC50 values were calculated. […]
(§2) Cells were incubated at a range of concentrations of the UAP inhibitors (typically at 0, 10, 25, 50, 100, and 150 μM) and the number of cells were quantified, typically by automated counting (e.g., with a Coulter Counter Z2 instrument) after 1, 2, 3, or 5 days of exposure.

PANC-1 cells = assay: Cell count / cell proliferation assay in PANC-1 cells; conditions: for effect on PANC-1 cell numbers / proliferation: in words; for IC50: cells counted after 48 hours incubation, normalized to controls, read-out: Estimated IC50 values, PANC-1
Experimental: as §1, §2

[1] = test system: primary human adipose stem cells (hASCs); assay: Cell count assay in control cells (human ASCs); conditions: Homo sapiens, 48 h; two days of exposure; 300 is the highest concentration tested
From the text: FIG. 4A and FIG. 4B depict histogram results of cell count assays after two days of exposure to each analog in cancer cell lines (SW1990 and PANC-1) and in control cells (human ASCs). […] In all cases, IC50 values were greater than 300 which is the highest concentration tested, for the ACSs, while the Ac4Glc2Bz analogs and Ac4Gal2Bz analogs were effective to reduce cell numbers in both cancer cell lines.

IC50 [1] [µM]	Structure (SMILES)	effect on SW1990 cell numbers / proliferation (SW1990 cells)	effect on PANC-1 cell numbers / proliferation (PANC-1 cells)	IC50 (SW1990 cells) [µM]	IC50 (PANC-1 cells) [µM]	IC50 (SW1990 cells; Homo sapiens, SW1990) [µM]	IC50 (PANC-1 cells; Homo sapiens, PANC-1) [µM]
–	CC(=O)OC1OC(CO)C(OC(C)=O)C(OC(C)=O)C1NC(=O)c1ccccc1 (stereo not shown) [1,3,4-O-Ac3Glc2Bz]	consistently reduced cell numbers	consistently reduced cell numbers	–	–	–	–
–	CC(=O)OCC1OC(O)[C@@H](NC(=O)c2ccccc2)[C@@H](OC(C)=O)[C@@H]1OC(C)=O (stereo partly shown) [3,4,6-O—Ac3Glc2Bz]	remarkable inhibition	–	37.1 ± 1.8	76.1 ± 1.6	–	–
> 300	CC(=O)OCC1OC(OC(C)=O)[C@@H](NC(=O)c2ccccc2)[C@@H](OC(C)=O)[C@H]1OC(C)=O (stereo partly shown) [Ac4Gal2Bz]	remarkable inhibition	–	–	–	39.1 ± 2.2	107 ± 1.1
–	CC(=O)OC[C@H]1OC(OC(C)=O)[C@H](NC(=O)c2ccccc2O)[C@@H](OC(C)=O)[C@@H]1OC(C)=O (stereo partly shown) [Ac4Glc2NBz-2-OH]	consistently reduced cell numbers	consistently reduced cell numbers	140.3 ± 1.4	49.9 ± 1.3	–	–
–	CC(=O)OCC1OC(OC(C)=O)[C@@H](NC(=O)C2CCCCC2)[C@@H](OC(C)=O)[C@H]1OC(C)=O (stereo partly shown) [Ac4GlcNCyx]	–	–	–	–	160.9 ± 1.4	84.1 ± 1.5
–	CC(=O)OCC1OC(OC(C)=O)[C@H](NC(=O)c2ccccc2)[C@@H](OC(C)=O)[C@H]1OC(C)=O (stereo partly shown) [Ac4Man2Bz]	substantially low effect	substantially low effect	–	–	148 ± 1.5	100 ± 1.8

Reference: patent US11827663B2, “Use of UAP inhibitors to inhibit flux through the hexosamine biosynthetic pathway” (The Johns Hopkins University, priority 2014, dated 2023)
